Series [1] addresses Hsp90 Nuclear Binding Domain (NBD) (Candida albicans (strain SC5314 / ATCC MYA-2876) (Yeast), UniProt P46598). The series is described as follows: Surface Plasmon Resonance (SPR) binding, C. albicans Hsp90 NBD. Particulars: biotinylated Hsp90 NBD on streptavidin chip, 25° C., 1:1 binding model. The gist of the method: (§1)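 Biacore S200 at 25° C; AviTag-biotinylated recombinant Hsp90 NBD captured on streptavidin chip at 2000-2500 RU. Compound dilution series run in HBS-P pH 7.4 with 2% DMSO at 40 μL/min, 60 s association and 600 s dissociation. Sensorgrams fitted to a 1:1 binding model.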

Series [2] concerns the target Hsp90 Nuclear Binding Domain (NBD) (Aspergillus fumigatus, UniProt P40292). The experiment in a line: Surface Plasmon Resonance (SPR) binding, A. fumigatus Hsp90 NBD. Particulars: biotinylated Hsp90 NBD on streptavidin chip, 25° C., 1:1 binding model; NB undefined. In a few lines:
as §1

For another series, the system named is CaCl2. The experiment in a line: Antifungal sensitivity testing (broth microdilution MIC). It is filed as cell-based. Particulars: 96-well broth microdilution. The gist of the method:
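Broth microdilution MIC per a modified published protocol; compounds dissolved in DMSO, fluconazole in water; duplicates in at least two independent experiments. Fungicidal activity checked by spotting MIC-plate cultures onto YPD agar, read after 24 h at 30° C.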
In general terms: In broth dilution the organism is exposed to a series of concentrations in liquid medium.

The subject of the next series is HepG2 cells. The series is described as follows: Mammalian cell toxicity (Cell Titer-Glo). It is filed as cell-based. The protocol: Mammalian Cell Toxicity. HepG2 cells were seeded overnight at 500 cells/well in 384-well plate, then incubated with compounds (10-point concentration titration) for 48 h. Cell Titer-Glo® reagent ([…]) was added to each well and after 10-minute incubation at room temperature the luminescent signal was measured using an Envision plate reader (Perkin Elmer).

The Kd is a measure of binding affinity in units of concentration. A low value points to tighter binding. As usually defined, the MIC50 is an inhibitory concentration at the 50% level, which refers to growth in some studies and to a panel of isolates in others. Low values mean higher susceptibility, high ones lower susceptibility.

Converted amounts (≈) assume the structure as drawn.

Sequence of Hsp90 Nuclear Binding Domain (NBD) (Aspergillus fumigatus, UniProt P40292) (P40292 whole entry, looked up, the tested form may be a part): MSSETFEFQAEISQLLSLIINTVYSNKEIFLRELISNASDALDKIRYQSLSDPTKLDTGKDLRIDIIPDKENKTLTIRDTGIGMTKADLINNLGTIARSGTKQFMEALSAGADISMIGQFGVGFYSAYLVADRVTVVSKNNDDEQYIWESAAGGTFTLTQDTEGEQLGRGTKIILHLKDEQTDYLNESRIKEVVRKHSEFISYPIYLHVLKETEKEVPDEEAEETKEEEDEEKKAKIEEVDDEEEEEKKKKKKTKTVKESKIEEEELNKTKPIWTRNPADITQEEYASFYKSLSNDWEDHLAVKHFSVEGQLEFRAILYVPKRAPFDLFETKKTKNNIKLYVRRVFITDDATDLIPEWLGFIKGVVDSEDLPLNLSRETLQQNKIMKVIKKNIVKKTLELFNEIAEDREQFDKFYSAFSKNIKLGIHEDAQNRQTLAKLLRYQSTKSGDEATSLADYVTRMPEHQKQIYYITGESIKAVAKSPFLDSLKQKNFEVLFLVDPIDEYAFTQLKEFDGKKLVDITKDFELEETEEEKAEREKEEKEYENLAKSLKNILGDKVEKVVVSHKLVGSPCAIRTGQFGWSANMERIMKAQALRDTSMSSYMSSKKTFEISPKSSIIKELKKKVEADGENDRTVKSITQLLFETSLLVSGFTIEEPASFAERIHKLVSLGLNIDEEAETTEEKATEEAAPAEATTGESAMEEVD
Sequence of Hsp90 Nuclear Binding Domain (NBD) (Candida albicans (strain SC5314 / ATCC MYA-2876) (Yeast), UniProt P46598) (P46598 1-218 limits assumed): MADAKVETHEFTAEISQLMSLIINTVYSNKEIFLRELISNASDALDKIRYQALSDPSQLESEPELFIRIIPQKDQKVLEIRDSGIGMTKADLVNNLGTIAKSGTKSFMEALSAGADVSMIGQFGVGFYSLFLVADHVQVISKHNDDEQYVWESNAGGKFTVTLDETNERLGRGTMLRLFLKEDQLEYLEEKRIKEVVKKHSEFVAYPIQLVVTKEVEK

On to `Nc1nc2sc(CNC3CCN(C[C@@](O)(Cn4cncn4)c4ccc(F)cc4F)CC3)cc2n(-c2ccc3c(c2)N(c2ccccc2)CCO3)c1=O` [Compound I-62, (R)-3-amino-6-(((1-(2-(2,4-difluorophenyl)-2-hydroxy-3-(1H-1,2,4-triazol-1-yl)propyl)piperidin-4-yl)amino)methyl)-1-(4-phenyl-3,4-dihydro-2H-benzo[b][1,4]oxazin-6-yl)thieno[2,3-b]pyrazin-2(1H)-one], for which the Kd in series [1] was found to be 234 nM; in series [2] it was 423 nM. Also, the MIC50 against CaCl2 (Table 4) and against CaCl2 (Table 6) was 3 µM (≈ 2.18 µg/mL) each time. For the same molecule, the “HepG2 MIC50” value in the series with HepG2 cells (Table 6, 48 h incubation) is 10.6 µM.

`Nc1nc2sc(C(=O)NC3CCN(CCCC(O)(Cn4cncn4)c4ccc(F)cc4F)CC3)cc2n(-c2ccc3c(c2)N(c2ccccc2)CCO3)c1=O` (stereo not shown) [Compound I-64, 3-amino-N-(1-(4-(2,4-difluorophenyl)-4-hydroxy-5-(1H-1,2,4-triazol-1-yl)pentyl)piperidin-4-yl)-2-oxo-1-(4-phenyl-3,4-dihydro-2H-benzo[b][1,4]oxazin-6-yl)-1,2-dihydrothieno[2,3-b]pyrazine-6-carboxamide]: the Kd came out at 0.9 nM in series [1] and 19.3 nM in series [2]. Besides, the MIC50 against CaCl2 (Table 4) came out at 3.12 µM (≈ 2.4 µg/mL); against CaCl2 (Table 6), 3.13 µM (≈ 2.4 µg/mL). Besides, the “HepG2 MIC50” value in the series with HepG2 cells (Table 6, 48 h incubation) amounted to 2 µM.

Turning to `Nc1nc2sc(CNCC3CCN(CC(O)(Cn4cncn4)c4ccc(F)cc4F)CC3)cc2n(-c2ccc3c(c2)N(c2ccccc2)CCO3)c1=O` (stereo not shown) [Compound I-67, 3-amino-6-((((1-(2-(2,4-difluorophenyl)-2-hydroxy-3-(1H-1,2,4-triazol-1-yl)propyl)piperidin-4-yl)methyl)amino)methyl)-1-(4-phenyl-3,4-dihydro-2H-benzo[b][1,4]oxazin-6-yl)thieno[2,3-b]pyrazin-2(1H)-one], the Kd in series [1] was 402 nM; in series [2] it was 503 nM. Moreover, the MIC50 with CaCl2 (Table 4) and in the series on CaCl2 (Table 6) was 2.25 µM (≈ 1.66 µg/mL) in each case. For the same molecule, in the series on HepG2 cells (Table 6, 48 h incubation), the “HepG2 MIC50” value turned out to be 4.7 µM.

On to `Nc1nc2sc(C(=O)N[C@@H]3CCN(CC[C@@](O)(Cn4cncn4)c4ccc(F)cc4F)C3)cc2n(-c2ccc3c(c2)N(c2ccccc2)CCO3)c1=O` [Compound I-70, 3-amino-N-((R)-1-((S)-3-(2,4-difluorophenyl)-3-hydroxy-4-(1H-1,2,4-triazol-1-yl)butyl)pyrrolidin-3-yl)-2-oxo-1-(4-phenyl-3,4-dihydro-2H-benzo[b][1,4]oxazin-6-yl)-1,2-dihydrothieno[2,3-b]pyrazine-6-carboxamide], for which the Kd turned out to be 0.3 nM in series [1] and 2.9 nM in series [2]. Moreover, the MIC50 in the series with CaCl2 (Table 4) and with CaCl2 (Table 6) was 5.75 µM (≈ 4.25 µg/mL) throughout. The “HepG2 MIC50” value in the series on HepG2 cells (Table 6, 48 h incubation) was found to be 1.5 µM.

As for `Nc1nc2sc(CNC3CCN(CCC(O)(Cn4cncn4)c4ccc(F)cc4F)CC3)cc2n(-c2ccc3c(c2)N(c2ccccc2)CCO3)c1=O` (stereo not shown) [Compound I-72, 3-amino-6-(((1-(3-(2,4-difluorophenyl)-3-hydroxy-4-(1H-1,2,4-triazol-1-yl)butyl)piperidin-4-yl)amino)methyl)-1-(4-phenyl-3,4-dihydro-2H-benzo[b][1,4]oxazin-6-yl)thieno[2,3-b]pyrazin-2(1H)-one], the dissociation constant Kd in series [1] stood at 121 nM; in series [2] it was 197 nM. Also, the MIC50 in the series with CaCl2 (Table 4) and against CaCl2 (Table 6) was 7.5 µM (≈ 5.55 µg/mL) each time. Besides, the “HepG2 MIC50” value in the series with HepG2 cells (Table 6, 48 h incubation) turned out to be 4.6 µM.

Consider `CC(F)(F)COC(=O)N1Cc2nc(N)nc(-c3c(Cl)cc(Cl)cc3OCCC(O)(Cn3cncn3)c3ccc(F)cc3F)c2C1` (stereo not shown) [Compound I-115, 2,2-difluoropropyl-2-amino-4-(2,4-dichloro-6-(3-(2,4-difluorophenyl)-3-hydroxy-4-(1H-1,2,4-triazol-1-yl)butoxy)phenyl)-5,7-dihydro-6H-pyrrolo[3,4-d]pyrimidine-6-carboxylate], for which the results for the Kd in series [1] and in series [2] were 1200 nM and 1170 nM, respectively. For the same molecule, the MIC50 against CaCl2 (Table 4) and against CaCl2 (Table 6) was 6.5 µM (≈ 4.36 µg/mL) in each case. Moreover, in the series with HepG2 cells (Table 6, 48 h incubation), the “HepG2 MIC50” value is over 20 µM.

With `Nc1nc2sc(CNC3CCN(CCCCCC(O)(Cn4cncn4)c4ccc(F)cc4F)CC3)cc2n(-c2ccc3c(c2)N(c2ccccc2)CCO3)c1=O` (stereo not shown) [Compound I-118, 3-amino-6-(((1-(6-(2,4-difluorophenyl)-6-hydroxy-7-(1H-1,2,4-triazol-1-yl)heptyl)piperidin-4-yl)amino)methyl)-1-(4-phenyl-3,4-dihydro-2H-benzo[b][1,4]oxazin-6-yl)thieno[2,3-b]pyrazin-2(1H)-one], the results for the Kd in series [1] and in series [2] were 191 nM and 406 nM, respectively. Besides, the MIC50 against CaCl2 (Table 4) and against CaCl2 (Table 6) was 2 µM (≈ 1.56 µg/mL) throughout. For the same molecule, the “HepG2 MIC50” value was found to be 3 µM in the series with HepG2 cells (Table 5, 48 h incubation) and 3 µM with HepG2 cells (Table 6, 48 h incubation).

For the molecule `Nc1nc2sc(CNCC3CCN(C[C@@](O)(Cn4cncn4)c4ccc(F)cc4F)CC3)cc2n(-c2ccc3c(c2)N(c2ccccc2)CCO3)c1=O` [Compound I-122, (R)-3-amino-6-((((1-(2-(2,4-difluorophenyl)-2-hydroxy-3-(1H-1,2,4-triazol-1-yl)propyl)piperidin-4-yl)methyl)amino)methyl)-1-(4-phenyl-3,4-dihydro-2H-benzo[b][1,4]oxazin-6-yl)thieno[2,3-b]pyrazin-2(1H)-one], the Kd in series [1] stood at 1630 nM; in series [2], 1900 nM. In addition, the MIC50 against CaCl2 (Table 4) and against CaCl2 (Table 6) was 6.5 µM (≈ 4.81 µg/mL) in each case. In the series with HepG2 cells (Table 6, 48 h incubation), the “HepG2 MIC50” value is 14.3 µM.

With `Nc1nc2sc(CN[C@H]3CCCN(C[C@](O)(Cn4cncn4)c4ccc(F)cc4F)C3)cc2n(-c2ccc3c(c2)N(c2ccccc2)CCO3)c1=O` [Compound I-130, 3-amino-6-((((S)-1-((S)-2-(2,4-difluorophenyl)-2-hydroxy-3-(1H-1,2,4-triazol-1-yl)propyl)piperidin-3-yl)amino)methyl)-1-(4-phenyl-3,4-dihydro-2H-benzo[b][1,4]oxazin-6-yl)thieno[2,3-b]pyrazin-2(1H)-one], the values for the Kd in series [1] and in series [2] were 1580 nM and 2190 nM, respectively. Also, the MIC50 in the series on CaCl2 (Table 4) and with CaCl2 (Table 6) was 1.75 µM (≈ 1.27 µg/mL) each time. Further, the “HepG2 MIC50” value with HepG2 cells (Table 5, 48 h incubation) was over 20 µM; in the series on HepG2 cells (Table 6, 48 h incubation), over 20 µM.

Turning to `Nc1nc2sc(CNC3CCN(CC[C@@](O)(Cn4cncn4)c4ccc(F)cc4F)CC3)cc2n(-c2ccc3c(c2)N(c2ccccc2)CCO3)c1=O` [Compound I-133, (S)-3-amino-6-(((1-(3-(2,4-difluorophenyl)-3-hydroxy-4-(1H-1,2,4-triazol-1-yl)butyl)piperidin-4-yl)amino)methyl)-1-(4-phenyl-3,4-dihydro-2H-benzo[b][1,4]oxazin-6-yl)thieno[2,3-b]pyrazin-2(1H)-one], the figures for the Kd in series [1] and in series [2] were 300 nM and 620 nM, respectively. The MIC50 with CaCl2 (Table 4) and against CaCl2 (Table 6) was 2.13 µM (≈ 1.58 µg/mL) in each case. Besides, in the series on HepG2 cells (Table 6, 48 h incubation), the “HepG2 MIC50” value turned out to be 16.8 µM.

Regarding `Nc1nc2sc(CN3CCC(NCC(O)(Cn4cncn4)c4ccc(F)cc4F)CC3)cc2n(-c2ccc3c(c2)N(c2ccccc2)CCO3)c1=O` (stereo not shown) [Compound I-134, 3-amino-6-((4-((2-(2,4-difluorophenyl)-2-hydroxy-3-(1H-1,2,4-triazol-1-yl)propyl)amino)piperidin-1-yl)methyl)-1-(4-phenyl-3,4-dihydro-2H-benzo[b][1,4]oxazin-6-yl)thieno[2,3-b]pyrazin-2(1H)-one], the Kd in series [1] was determined as 665 nM; in series [2] it was 1050 nM. For the same molecule, the MIC50 in the series on CaCl2 (Table 4) and in the series with CaCl2 (Table 6) was 3.13 µM (≈ 2.27 µg/mL) throughout. In addition, the “HepG2 MIC50” value in the series with HepG2 cells (Table 6, 48 h incubation) was determined as 15 µM.

In the case of `Nc1nc2sc(CNC3CCN(CC(=O)OCCC(O)(Cn4cncn4)c4ccc(F)cc4F)CC3)cc2n(-c2ccc3c(c2)N(c2ccccc2)CCO3)c1=O` (stereo not shown) [Compound I-136, 3-(2,4-difluorophenyl)-3-hydroxy-4-(1H-1,2,4-triazol-1-yl)butyl 2-(4-(((3-amino-2-oxo-1-(4-phenyl-3,4-dihydro-2H-benzo[b][1,4]oxazin-6-yl)-1,2-dihydrothieno[2,3-b]pyrazin-6-yl)methyl)amino)piperidin-1-yl)acetate], the Kd is 271 nM in series [1] and 529 nM in series [2]. Also, the MIC50 against CaCl2 (Table 4) and in the series with CaCl2 (Table 6) was 6.25 µM (≈ 4.99 µg/mL) throughout. Further, the “HepG2 MIC50” value in the series with HepG2 cells (Table 6, 48 h incubation) turned out to be 19.4 µM.

`CC1CC(NCc2cc3c(nc(N)c(=O)n3-c3ccc4c(c3)N(c3ccccc3)CCO4)s2)CCN1CC(O)(Cn1cncn1)c1ccc(F)cc1F` (stereo not shown) [Compound I-138, 3-amino-6-(((1-(2-(2,4-difluorophenyl)-2-hydroxy-3-(1H-1,2,4-triazol-1-yl)propyl)-2-methylpiperidin-4-yl)amino)methyl)-1-(4-phenyl-3,4-dihydro-2H-benzo[b][1,4]oxazin-6-yl)thieno[2,3-b]pyrazin-2(1H)-one]: the figures for the Kd in series [1] and in series [2] were 445 nM and 674 nM, respectively. The MIC50 in the series on CaCl2 (Table 4) and against CaCl2 (Table 6) was 2.3 µM (≈ 1.7 µg/mL) throughout. The “HepG2 MIC50” value in the series with HepG2 cells (Table 6, 48 h incubation) stood at 7.9 µM.

For the origin of these results see patent US20240424113A1, “CONJUGATES COMPRISING ANTIFUNGALS AND HEAT SHOCK PROTEIN 90 (HSP90) INHIBITORS AND METHODS OF USE THEREOF” (Bright Angel Therapeutics Inc., priority 2021, published 2024).
